These molecules were tested against T1, recombinant human estrone sulfatase (Homo sapiens, UniProt P08842) (assay: Estrone sulfatase (steroid sulfatase) inhibition test (Method A), [3H]-estrone sulfate substrate). Details: [6,7-3H]-estrone sulfate 6.67 μmol/L, pH 7.5, 37° C., 30 minutes, read-out: Inhibitory Activity against Steroid Sulfatase IC50.
T1 sequence (P08842 22-583): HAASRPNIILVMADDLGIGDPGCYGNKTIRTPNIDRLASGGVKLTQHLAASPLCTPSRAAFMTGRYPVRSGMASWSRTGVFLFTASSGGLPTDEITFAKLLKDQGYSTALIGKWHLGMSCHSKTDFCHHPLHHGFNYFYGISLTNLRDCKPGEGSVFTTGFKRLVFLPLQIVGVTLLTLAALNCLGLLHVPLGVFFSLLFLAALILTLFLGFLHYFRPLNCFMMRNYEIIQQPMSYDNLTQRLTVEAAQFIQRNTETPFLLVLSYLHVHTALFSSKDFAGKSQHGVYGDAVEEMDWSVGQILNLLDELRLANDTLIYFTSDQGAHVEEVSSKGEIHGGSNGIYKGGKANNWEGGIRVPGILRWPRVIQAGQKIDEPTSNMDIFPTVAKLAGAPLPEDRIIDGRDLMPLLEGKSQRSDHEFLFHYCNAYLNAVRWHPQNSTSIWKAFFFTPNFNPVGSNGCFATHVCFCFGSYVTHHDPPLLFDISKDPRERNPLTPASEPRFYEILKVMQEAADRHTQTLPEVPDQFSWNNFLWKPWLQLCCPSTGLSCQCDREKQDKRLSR
Assay type: biochemical
Description: Estrone Sulfatase (Steroid Sulfatase) Inhibition Test (Method A)
[6,7-^3H]-Estrone sulfate (final concentration 6.67 μmol/L; 0.025 μCi/tube), recombinant human estrone sulfatase (33 ng/tube) and an estra-1,3,5(10)-triene derivative of each test concentration (the estra-1,3,5(10)-triene derivative was dissolved in 0.003 mL of DMSO) were added to a phosphate buffer (pH 7.5, final volume 0.15 mL) containing 0.25 mol/L of sucrose and 0.04 mol/L of nicotinamide, and the mixture was subjected to enzymatic reaction at 37° C. for 30 minutes. The recombinant human estrone sulfatase used herein was prepared from CHO (Chinese hamster ovary) cells, which were transfected with a human estrone sulfatase gene, after partial purification. After the enzymatic reaction, toluene (0.5 mL) was added to the reaction mixture followed by stirring, and the mixture was centrifuged at 9000 rpm for 5 minutes. The toluene extract layer was taken out, and the radioactivity of the [^3H]-estrone formed therein was measured with a liquid scintillation counter. The measurement was carried out at one time by duplication, and the assay fluctuation was 10% or less. The enzymatic reaction in the absence of the test compound was also carried out simultaneously. The inhibitory activity against estrone sulfatase of the test compound of each concentration was calculated according to the equation shown below. Inhibitory Activity against Estrone Sulfatase (%)=100−{100×[(A−C)/(B−C)]} wherein; • A: the amount of [^3H]-estrone formed in the presence of the test compound • B: the amount of [^3H]-estrone formed in the absence of the test compound • C: the amount of [^3H]-estrone formed in the absence of both of the recombinant human estrone sulfatase and the test compound.
(§1) The inhibitory activity against estrone sulfatase of the estra-1,3,5(10)-triene derivative tested can be designated by the concentration (IC50) of the derivative that reduces the estrone sulfatase activity to a half of that in the control system not containing the test compound.
For `CC12CCC3c4ccc(OS(N)(=O)=O)cc4CCC3C1CC=C2C(=O)N1CCCC1` (stereo not drawn) [Compound 1], the IC50 was 4.4 nM.
`CC12CCC3c4ccc(OS(N)(=O)=O)cc4CCC3C1CC=C2C(=O)NC1CCCC1` (stereo not drawn) [Compound 7] gave an IC50 of 1 nM.
`CC12CCC3c4ccc(OS(N)(=O)=O)cc4CCC3C1CC=C2C(=O)NCC1CC1` (stereo not drawn) [Compound 9] was tested, and the IC50 was 3.6 nM.
In the case of `C=CCNC(=O)C1=CCC2C3CCc4cc(OS(N)(=O)=O)ccc4C3CCC12C` (stereo not drawn) [Compound 10], the IC50 is reported as 5.6 nM.
With `COC(=O)CCCCCNC(=O)C1=CCC2C3CCc4cc(OS(N)(=O)=O)ccc4C3CCC12C` (stereo not drawn) [Compound 14] the IC50 was 10 nM.
For `COCCNC(=O)C1=CCC2C3CCc4cc(OS(N)(=O)=O)ccc4C3CCC12C` (stereo not drawn) [Compound 18], the IC50 was 2.8 nM.
With `CC12CCC3c4ccc(OS(N)(=O)=O)cc4CCC3C1CC=C2C(=O)NCCCCO` (stereo not drawn) [Compound 22] the IC50 was 9.8 nM.
In the case of `COC(=O)C(NC(=O)C1=CCC2C3CCc4cc(OS(N)(=O)=O)ccc4C3CCC12C)C(C)C` (stereo not drawn) [Compound 29], the IC50 is reported as 4.5 nM.
Work on `COC(=O)C1CCCN1C(=O)C1=CCC2C3CCc4cc(OS(N)(=O)=O)ccc4C3CCC12C` (stereo not drawn) [Compound 33] yielded an IC50 of 5.1 nM.
In the case of `CC12CCC3c4ccc(OS(N)(=O)=O)cc4CCC3C1CC=C2C(=O)Nc1ccccc1` (stereo not drawn) [Compound 34], the IC50 is reported as 10 nM.
Molecule `CC12CCC3c4ccc(OS(N)(=O)=O)cc4CCC3C1CC=C2C(=O)Nc1cnccn1` (stereo not drawn) [Compound 40] has an IC50 of 9.4 nM.
Molecule `CC12CCC3c4ccc(OS(N)(=O)=O)cc4CCC3C1CCC2C(=O)N1CCCC1` (stereo not drawn) [Compound 73] has an IC50 of 6 nM.
Molecule `COCCNC(=O)C1CCC2C3CCc4cc(OS(N)(=O)=O)ccc4C3CCC12C` (stereo not drawn) [Compound 76] has an IC50 of 15.5 nM.
In the case of `CCCNC(=O)C=C1CCC2C3CCc4cc(OS(N)(=O)=O)ccc4C3CCC12C` (stereo not drawn) [Compound 81], the IC50 is reported as 6.2 nM.

These molecules were tested against T1, recombinant human estrone sulfatase (assay: Estrone sulfatase (steroid sulfatase) inhibition test (Method B), 4-methylumbelliferyl sulfate substrate). Details: 4-methylumbelliferyl sulfate 0.3 mmol/L, pH 7.5, 37° C., 1 hour, read-out: Inhibitory Activity against Steroid Sulfatase IC50.
Assay type: biochemical
Description: Estrone Sulfatase (Steroid Sulfatase) Inhibition Test (Method B)
4-Methylumbelliferyl sulfate (final concentration 0.3 mmol/L), recombinant human estrone sulfatase (7.8 ng/well) and an estra-1,3,5(10)-triene derivative of each test concentration (the estra-1,3,5(10)-triene derivative was dissolved in 0.001 mL of DMSO) were added to a phosphate buffer (pH 7.5, final volume 0.1 mL) containing 0.28 mol/L of sucrose and 0.04 mol/L of nicotinamide, and the mixture was subjected to enzymatic reaction at 37° C. for 1 hour. The recombinant human estrone sulfatase used herein was prepared from CHO (Chinese hamster ovary) cells, which were transfected with a human estrone sulfatase gene, after partial purification. After the enzymatic reaction, an aqueous solution of 2 mol/L glycine-sodium hydroxide (pH 10.3, 0.13 mL) was added thereto followed by stirring. Using a fluorescent plate reader (Cyto Fluor II), the fluorescent intensity of 4-methylumbelliferone formed in the system was measured. The measurement was carried out at one time by duplication, and the assay fluctuation was 10% or less. The enzymatic reaction in the absence of the test compound was also carried out simultaneously. The inhibitory activity against estrone sulfatase of the test compound of each concentration was calculated according to the equation shown below. Inhibitory Activity against Estrone Sulfatase (%)=100−[100×(A/B)] wherein; • A: the amount of 4-methylumbelliferone formed in the presence of the test compound, • B: the amount of 4-methylumbelliferone formed in the absence of the test compound.
as §1
In the case of `CC12CCC3c4ccc(OS(N)(=O)=O)cc4CCC3C1CC=C2C(=O)N1CCN(c2ccccn2)CC1` (stereo not drawn) [Compound 5], the IC50 is reported as 3.7 nM.
Molecule `CC(C)(CO)NC(=O)C1=CCC2C3CCc4cc(OS(N)(=O)=O)ccc4C3CCC12C` (stereo not drawn) [Compound 23] has an IC50 of 26 nM.
`CC12CCC3c4ccc(OS(N)(=O)=O)cc4CCC3C1CC=C2C(=O)NCc1ccc(C(=O)O)cc1` (stereo not drawn) [Compound 37] was tested, and the IC50 was 6 nM.
Molecule `COc1ccc(NC(=O)C2=CCC3C4CCc5cc(OS(N)(=O)=O)ccc5C4CCC23C)cn1` (stereo not drawn) [Compound 39] has an IC50 of 3.7 nM.
Work on `COc1ccnc(CNC(=O)C2=CCC3C4CCc5cc(OS(N)(=O)=O)ccc5C4CCC23C)c1` (stereo not drawn) [Compound 47] yielded an IC50 of 5 nM.
With `Cc1cnc(CNC(=O)C2=CCC3C4CCc5cc(OS(N)(=O)=O)ccc5C4CCC23C)cn1` (stereo not drawn) [Compound 49] the IC50 was 24.2 nM.
Molecule `CC12CCC3c4ccc(OS(N)(=O)=O)cc4CCC3C1CC=C2C(=O)NCCCc1ccncc1` (stereo not drawn) [Compound 55] has an IC50 of 4.5 nM.
`CC12CCC3c4ccc(OS(N)(=O)=O)cc4CCC3C1CC=C2C(=O)Nc1ccon1` (stereo not drawn) [Compound 58] was tested, and the IC50 was 11 nM.
In the case of `CCn1nccc1NC(=O)C1=CCC2C3CCc4cc(OS(N)(=O)=O)ccc4C3CCC12C` (stereo not drawn) [Compound 62], the IC50 is reported as 8.9 nM.
Work on `CC12CCC3c4ccc(OS(N)(=O)=O)cc4CCC3C1CC=C2C(=O)NNc1ccccn1` (stereo not drawn) [Compound 69] yielded an IC50 of 6 nM.
In the case of `COCCOCCOC(=O)C1=CCC2C3CCc4cc(OS(N)(=O)=O)ccc4C3CCC12C` (stereo not drawn) [Compound 71], the IC50 is reported as 17 nM.
In the case of `CCOC(=O)CC1CCC2C3CCc4cc(OS(N)(=O)=O)ccc4C3CCC12C` (stereo not drawn) [Compound 83], the IC50 is reported as 12 nM.
`CCCNC(=O)CC1CCC2C3CCc4cc(OS(N)(=O)=O)ccc4C3CCC12C` (stereo not drawn) [Compound 85] was tested, and the IC50 was 10.3 nM.
`CC12CCC3c4ccc(OS(N)(=O)=O)cc4CCC3C1CCC2CC(=O)N1CCOCC1` (stereo not drawn) [Compound 88] was tested, and the IC50 was 11 nM.
`CC12CCC3c4ccc(OS(N)(=O)=O)cc4CCC3C1CC=C2c1cccnc1` (stereo not drawn) [Compound 90] was tested, and the IC50 was 12 nM.
Work on `Cc1coc(C2=CCC3C4CCc5cc(OS(N)(=O)=O)ccc5C4CCC23C)n1` (stereo not drawn) [Compound 92] yielded an IC50 of 21 nM.

From patent US6953785B2, “Estra-1,3,5(10)-triene derivatives” (priority 2000, dated 2005)
